Assay results from patent publication US11643439B2, “Multi-target compound with anticoagulation and antiplatelet activity, preparation method therefor, and use thereof” (SHAANXI MICOT TECHNOLOGY LIMITED COMPANY, priority 2015, dated 2023).

Assays:
[1] = system: blood coagulation function; test: APTT in rats, intravenous maintenance administration; assay type: in vivo, rat
Experimental: 160 Rats were randomly divided into groups, 5 to 10 rats per group.
According to the body weight in kilograms of the rats, the first dose of a drug was dissolved in 2 mL of physiological saline for single bolus injection. The maintaining dose of drug was dissolved in 9 ml of physiological saline, and placed in a double-channel micro-injection pump, which was dripped off within 90 minutes at a dripping speed of 0.1 ml/min. The sham operation group was administered with the same volume of physiological saline.
The rats were fasted with free access to water overnight before the experiment.
The blood samples were taken before administration, administration for 60 minutes, and before termination of administration, respectively, to determine their activated partial thromboplastin time (APTT) and prothrombin time (PT). The blood samples were centrifuged at 3510 rpm for 8 minutes to obtain platelet poor plasma (PPP). Reagent reconstruction and preservation were performed according to the operation requirements of the kit. Immediately after each blood sample was placed into a test cup and then PT and APTT reagents were added, the test was started. After the test was completed, results were recorded.
5.1 Determination of blood coagulation function: The blood samples were taken 0 min before administration, administration for 60 minutes, and termination of administration, respectively, and then determined using a platelet-aggregation coagulation factor analyzer for the blood coagulation functions (PT. APTT) and ACT.

[2] = system: blood coagulation function; test: PT in rabbits, single intravenous administration; assay type: in vivo, rabbit
Experimental: (§1) 1. Grouping and administration: 48 Rabbits were randomly divided into 6 groups, 8 rabbits per group. 1) Sham operation group (NS): Intravenous injection of the same volume of physiological saline; 2) positive control bivalirudin group (6 mg/kg); 3) positive control enoxaparin group (200 U/kg); 4) Low dose group of polypeptide 2 (3.0 mg/kg); 5) Medium dose group of polypeptide 2 (6.0 mg/kg); 6) High dose group of polypeptide 2 (12.0 mg/kg). Polypeptide 2 was administered by single intravenous administration. According to the body weight in kilograms of the rabbits, the sample was dissolved in 2 mL of physiological saline for single bolus injection. The sham operation group was administered with the same volume of physiological saline.
(§2) 3.2 Determination of blood coagulation function: Blood samples were taken and the blood function (PT, TT, APTT) was determined at 0 min before administration, at points of 5 min and 15 min after administration, using a platelet-aggregation coagulation factor analyzer. Blood samples were centrifuged at 3510 rpm for 8 min to obtain platelet poor plasma (PPP). Reagent reconstruction and preservation were performed according to the operation requirements of the kit. Immediately after each blood sample was placed into a test cup and then added with PT. TT and APTT reagents, the test was started. After the test was completed, results were recorded.

platelet aggregation = test: Platelet aggregation in rabbits, single intravenous administration; assay type: in vivo, rabbit
Experimental: as §1
3.1 Platelet aggregation rate: 2.7 ml of blood was taken from the femoral vein, rapidly injected into a centrifuge tube containing 0.3 ml of 3.8% sodium citrate solution, and fully mixed well. The resulted blood samples were centrifuged at 810 rpm (100 g) for 8 min to obtain PRP, which was taken out and centrifuged at 3500 rpm (1863 g) for 8 min to obtain PPP, which was used to determine platelet aggregation.
Blood samples were taken at a point before administration (0 min), and at points of administration for 5 min and 15 min, respectively, to determine the platelet aggregation rate, which was used to calculate the inhibitory rate of platelet aggregation with a calculation equation as follows: […]

[3] = system: blood coagulation function; test: APTT in rabbits, single intravenous administration; assay type: in vivo, rabbit
Experimental: as §1, §2

[4] = system: blood coagulation function; test: TT in rabbits, intravenous maintenance administration; assay type: in vivo, rabbit; conditions: iv 50 U + 150 U
Experimental: (§3) 2. Grouping and administration: 10 rabbits were randomly divided into 3 groups, 2 to 3 rabbits per group. 1) Sham operation group (NS): Intravenous injection of the same volume of physiological saline, with the same operation method as above; 2) polypeptide 2 administration group: 8.0 mg/kg+20.0 mg/kg/h; 3) positive control enoxaparin group: 50 U/kg+150 U/kg/h. According to the body weight in kilograms of the rabbits, the first dose of the drug to be tested was dissolved in 2 mL of physiological saline for single bolus injection. The maintaining dose was dissolved in 9 ml of physiological saline, and placed in a double-channel micro-injection pump, which was dripped off within 90 minutes at a dripping speed of […]. The sham operation group was administered with the same volume of physiological saline.
(§4) 4.2 Determination of blood coagulation function: Blood samples were taken and the blood function (PT, APTT) was determined at 0 min before administration, at points of 30 min, 60 min, 90 min after administration, and at points of 60 min, 120 min and 180 min after termination of administration, using a platelet-aggregation coagulation factor analyzer. Blood samples were centrifuged at 3510 rpm for 8 min to obtain platelet poor plasma (PPP). Reagent reconstruction and preservation were performed according to the operation requirements of the kit. Immediately after each blood sample was placed into a test cup and then added with PT, TT and APTT reagents, the test was started. After the test was completed, results were recorded.

[5] = system: blood coagulation function; test: PT in rabbits, intravenous maintenance administration; assay type: in vivo, rabbit; conditions: iv 50 U + 150 U
Experimental: as §3, §4

[6] = iv 0.08 + 0.325 (mg/kg + mg/kg/h)
[7] = iv 0.17 + 0.65 (mg/kg + mg/kg/h)
[8] = iv 0.35 + 3.3 (mg/kg + mg/kg/h)
[9] = single iv 6.0 mg/kg, Administration 5 min
[10] = single iv 6.0 mg/kg, Administration 15 min
[11] = single iv 6.0 mg/kg, Administration for 5 min
[12] = single iv 6.0 mg/kg, Administration for 15 min
[13] = single iv 6.0 mg/kg, Before administration
[14] = single iv 200 (U/kg), Administration 5 min
[15] = single iv 200 (U/kg), Administration 15 min
[16] = single iv 200 (U/kg), Administration for 5 min
[17] = single iv 200 (U/kg), Administration for 15 min
[18] = single iv 200 (U/kg), Before administration

Substance: Bivalirudin: Bivalirudin for Injection, Xi'an Xintong Pharmaceutical Research Co., Ltd.; positive control thrombin inhibitor
- APTT Before administration [1, 6]: 25.05 ± 1.78
- APTT Fold of change [1, 6]: 1.36 ± 0.50
- APTT administration for 60 minutes [1, 6]: 34.18 ± 12.92
- APTT Before administration [1, 7]: 25.55 ± 5.02
- APTT Fold of change [1, 7]: 1.66 ± 0.60
- APTT administration for 60 minutes [1, 7]: 41.46 ± 14.96
- APTT Before administration [1, 8]: 23.16 ± 2.37
- APTT Fold of change [1, 8]: 4.10 ± 1.86
- APTT administration for 60 minutes [1, 8]: 95.86 ± 45.71
- APTT Before administration ([1]; iv 0.5 + 2 (mg/kg + mg/kg/h)): 24.77 ± 7.84
- APTT Fold of change ([1]; iv 0.5 + 2 (mg/kg + mg/kg/h)): 3.89 ± 1.37
- APTT administration for 60 minutes ([1]; iv 0.5 + 2 (mg/kg + mg/kg/h)): 90.23 ± 21.92
- PT fold of prolongation [2, 9]: 3.0 ± 0.5
- PT fold of prolongation [2, 10]: 1.6 ± 0.2
- PT [2, 11]: 18.8 ± 1.1 S
- PT [2, 12]: 10.2 ± 0.7 S
- PT [2, 13]: 6.4 ± 0.2 S
- inhibitory rate of platelet aggregation (platelet aggregation; [11]): 5.2 ± 5.8%
- inhibitory rate of platelet aggregation (platelet aggregation; [12]): 4.6 ± 6.0%
- APTT fold of prolongation [3, 9]: 2.4 ± 0.3
- APTT fold of prolongation [3, 10]: 1.4 ± 0.3
- APTT [3, 11]: 50.4 ± 3.6 s
- APTT [3, 12]: 30.9 ± 2.7 s
- APTT [3, 13]: 21.6 ± 1.0 s

Substance: Enoxaparin
- TT ([4]; Administration 30 min): >180 s
- TT ([4]; Administration 60 min): >180 s
- TT ([4]; Administration 90 min): 18.9 S
- TT ([4]; Before administration): 20.5 S
- TT ([4]; Termination 60 min): 21.0 S
- TT ([4]; Termination 120 min): 29.0 S
- TT ([4]; Termination 180 min): 24.0 S
- APTT Before administration ([1]; iv 30 + 45 u (U/kg+U/kg/h)): 28.99 ± 7.00
- APTT Fold of change ([1]; iv 30 + 45 u (U/kg+U/kg/h)): 1.78 ± 0.61
- APTT administration for 60 minutes ([1]; iv 30 + 45 u (U/kg+U/kg/h)): 52.28 ± 22.51
- APTT Before administration ([1]; iv 30 + 120 u (U/kg+U/kg/h)): 23.66 ± 5.88
- APTT Fold of change ([1]; iv 30 + 120 u (U/kg+U/kg/h)): 4.65 ± 1.72
- APTT administration for 60 minutes ([1]; iv 30 + 120 u (U/kg+U/kg/h)): 117.55 ± 78.85
- APTT Before administration ([1]; iv 60 + 60 u (U/kg+U/kg/h)): 23.45 ± 4.70
- APTT Fold of change ([1]; iv 60 + 60 u (U/kg+U/kg/h)): 2.66 ± 0.36
- APTT administration for 60 minutes ([1]; iv 60 + 60 u (U/kg+U/kg/h)): 61.81 ± 13.19
- APTT Before administration ([1]; iv 60 + 240 u (U/kg+U/kg/h)): 26.79 ± 4.74
- APTT Fold of change ([1]; iv 60 + 240 u (U/kg+U/kg/h)): 10.69 ± 7.14
- APTT administration for 60 minutes ([1]; iv 60 + 240 u (U/kg+U/kg/h)): 270.43 ± 166.43
- APTT Before administration ([1]; iv 90 + 120 u (U/kg+U/kg/h)): 19.04 ± 5.26
- APTT Fold of change ([1]; iv 90 + 120 u (U/kg+U/kg/h)): 16.34 ± 12.97
- APTT administration for 60 minutes ([1]; iv 90 + 120 u (U/kg+U/kg/h)): 270.85 ± 148.90
- PT fold of prolongation [2, 14]: 1.2 ± 0.1
- PT fold of prolongation [2, 15]: 1.2 ± 0.1
- PT [2, 16]: 6.7 ± 1.1 S
- PT [2, 17]: 6.7 ± 0.8 S
- PT [2, 18]: 5.8 ± 0.2 S
- inhibitory rate of platelet aggregation (platelet aggregation; [16]): 9.5 ± 6.2%
- inhibitory rate of platelet aggregation (platelet aggregation; [17]): 16.1 ± 6.5%
- APTT fold of prolongation [3, 14]: 2.2 ± 0.5
- APTT fold of prolongation [3, 15]: 1.8 ± 0.3
- APTT [3, 16]: 48.7 ± 3.9 s
- APTT [3, 17]: 40.9 ± 2.9 s
- APTT [3, 18]: 22.5 ± 1.1 s
- PT ([5]; Administration 30 min): 10.4 S
- PT ([5]; Administration 60 min): 10.4 S
- PT ([5]; Administration 90 min): 11.3 S
- PT ([5]; Before administration): 9.4 S
- PT ([5]; Termination 60 min): 8.2 S
- PT ([5]; Termination 120 min): 8.1 S
- PT ([5]; Termination 180 min): 7.6 S
